Results reported in ChEMBL document CHEMBL1201862, “PubChem BioAssay data set” (2004).
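Briefly, cells in 96-well plates were exposed to five compound concentrations for 48 h, and endpoints were estimated by linear interpolation. The concentration for 50% growth inhibition is given as GI50.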 Activity calls are given as the source filed them. Rule as the data show it: active = GI50 up to about 1.1 µM and inactive = higher.

Assays:
Test in all cases: DTP human tumour cell line panel, 48 h
SNB-78 = system: SNB-78
HOP-92 = system: HOP-92
KM-20L2 = system: KM-20L2
DMS-273 = system: DMS-273
NCI/ADR-RES = system: NCI/ADR-RES
PC-3 = system: PC-3
HOP-18 = system: HOP-18
MDA-MB-435 = system: MDA-MB-435
RXF 631 = system: RXF 631

Measured: GI50

N#C/C(=C1/Sc2c(nc[nH]c2=O)N1c1ccccc1)c1nc2ccccc2[nH]1
inactive: SNB-78 > 100 µM | HOP-92 > 100 µM | KM-20L2 > 100 µM | DMS-273 > 100 µM

C[C@H](O)C(=O)SC[C@H](NC(=O)CC[C@@H](N)C(=O)O)C(=O)NCC(=O)O
inactive: HOP-92 > 100 µM | KM-20L2 > 100 µM | DMS-273 > 100 µM

CCOC(=O)c1c(N=C(S)Nc2ccccc2)sc2c1CCN(C)C2
inactive: NCI/ADR-RES > 100 µM | PC-3 > 100 µM

C/C=C/C1=CC(=O)C(O)C1O (centres undefined)
inactive: SNB-78 57.8 µM | HOP-92 27.2 µM | NCI/ADR-RES 25.5 µM | KM-20L2 28.2 µM | HOP-18 12.4 µM | DMS-273 25.9 µM

Cc1ccc(S(=O)(=O)N2c3ccccc3[C@H]3CCc4c([nH]c5ccccc45)[C@H]32)cc1
inactive: HOP-92 > 100 µM | MDA-MB-435 48.3 µM | NCI/ADR-RES > 100 µM | PC-3 > 100 µM

Cc1ccc(/N=N/C(=N\NC(=O)c2ccc(C)cc2)c2ccc(N(CCC#N)CCC#N)cc2C)cc1
inactive: HOP-92 51.3 µM | MDA-MB-435 21 µM | NCI/ADR-RES 38.9 µM | PC-3 24 µM

Cn1cc(NC(=O)[C@H]2CCC(N)=N2)cc1C(=O)NCCC(=N)N
inactive: SNB-78 > 100 µM | HOP-92 > 100 µM | KM-20L2 > 100 µM | HOP-18 > 100 µM | DMS-273 > 100 µM

c1ccc2c(c1)CCCC/C2=N/OCC1CO1 (centres undefined)
inactive: SNB-78 57.4 µM | HOP-92 22.3 µM | KM-20L2 > 100 µM | HOP-18 34.7 µM | DMS-273 53.1 µM

O=C(Nc1c(C(=O)NC2CCCCC2)[nH]c(=O)[nH]c1=O)c1ccc(Cl)cc1
inactive: HOP-92 > 100 µM | HOP-18 > 100 µM

O=C(N/N=C/c1ccccc1)c1c(F)c(F)c(F)c(F)c1F
inactive: HOP-92 79.6 µM | MDA-MB-435 37.8 µM | NCI/ADR-RES > 100 µM | PC-3 > 100 µM

COc1ccc(C(=O)/C=C/c2ccc(OCC(=O)N3CCN(c4ccccc4)CC3)cc2)cc1
inactive: SNB-78 15.1 µM | HOP-92 14.2 µM | MDA-MB-435 > 100 µM | NCI/ADR-RES 43.2 µM | KM-20L2 > 100 µM | HOP-18 > 100 µM | DMS-273 29.8 µM | PC-3 45.5 µM

C=CC(C)C1(CCCOCc2ccccc2)C(=S)N2CCC3(CC24CCCC14)OCCO3 (centres undefined)
inactive: SNB-78 9.48 µM | KM-20L2 62.2 µM | HOP-18 > 100 µM | DMS-273 10.3 µM

COc1ccc(-c2c3c(nc4nc(SCCc5ccccc5)nc(N)c24)CCCC3)cc1OC
inactive: MDA-MB-435 > 100 µM | NCI/ADR-RES > 100 µM | PC-3 > 100 µM

COC(=O)C(C/C=C(\C)c1ccc(Cl)cc1)C(C)=O (centres undefined)
inactive: SNB-78 > 56.8 µM | HOP-92 19.5 µM | NCI/ADR-RES 23.7 µM | KM-20L2 35.9 µM | HOP-18 40.3 µM | DMS-273 32.7 µM

CCOC(=O)c1cc(C2CCN(Cc3ccccc3)C2=S)c(C(=O)C=[N+]=[N-])[nH]1 (centres undefined)
inactive: HOP-92 21.3 µM | MDA-MB-435 40.1 µM | NCI/ADR-RES 24.5 µM | PC-3 27.4 µM

N#CCc1c(F)c(F)c(F)c(F)c1F
inactive: MDA-MB-435 > 100 µM | NCI/ADR-RES > 100 µM | PC-3 > 100 µM

O=C(NC1C=CCC2C(=O)N(c3ccccc3)C(=O)C12)OCc1ccccc1 (centres undefined)
inactive: SNB-78 > 100 µM | HOP-92 > 100 µM | KM-20L2 > 100 µM | HOP-18 > 100 µM | DMS-273 > 100 µM

CC1CC/C(=C\c2ccc(Cl)cc2)C(=O)/C1=C\c1ccc(Cl)cc1 (centres undefined)
inactive: HOP-92 > 100 µM | MDA-MB-435 36.8 µM | PC-3 34.4 µM

CC1CN=C(N(C(=O)Nc2ccccc2)C2CCCCC2)S1 (centres undefined)
inactive: NCI/ADR-RES 14.5 µM | PC-3 15.5 µM

O=C1C[C@H](Sc2ccccc2)C2(OCCO2)[C@@H](Sc2ccccc2)C1
inactive: HOP-92 1.9 µM | MDA-MB-435 2.25 µM | NCI/ADR-RES 1.88 µM | PC-3 1.93 µM

CC[C@]12C=CCN3CC[C@@]4(c5cc(Br)c(OC)c([N+](=O)[O-])c5N(C)[C@H]4[C@@](O)(C(=O)OC)[C@@H]1OC(C)=O)[C@@H]32
inactive: MDA-MB-435 35.1 µM | NCI/ADR-RES 48.1 µM | PC-3 40.4 µM

OCCCC(O)(c1ccccc1)c1ccccc1
inactive: MDA-MB-435 > 100 µM | NCI/ADR-RES > 100 µM | PC-3 > 100 µM

Cc1ccc(NC(=O)C(Cc2c[nH]c3ccccc23)NC(=O)Oc2ccccc2)cc1C (centres undefined)
inactive: HOP-92 27.7 µM | MDA-MB-435 65.2 µM | NCI/ADR-RES 83.8 µM | PC-3 37.3 µM

Cc1cccc(C(C)C)c1NC(=O)/C(Cc1c([N+](=O)[O-])cccc1[N+](=O)[O-])=N/NC(=O)CC#N
inactive: HOP-92 41.6 µM | RXF 631 > 100 µM | KM-20L2 > 100 µM | HOP-18 > 100 µM | DMS-273 > 100 µM

Cc1cc2cc3c(C)cc(=O)oc3c(C)c2o1 [TRIOXSALEN]
inactive: HOP-92 > 100 µM | MDA-MB-435 > 100 µM | NCI/ADR-RES > 100 µM | PC-3 > 100 µM

CCO[C@]12C[C@H](OC)[C@@]3(O)CC(C1[C@H]3O)C13C4C2[C@H](OC)C1[C@](COC)(CN4CC)[C@H](O)C[C@@H]3OC (some centres undefined)
inactive: SNB-78 > 100 µM | KM-20L2 > 100 µM | DMS-273 > 100 µM

Cc1csc(/N=C(/NCCN2CCOCC2)Nc2nc(C)cs2)n1
inactive: SNB-78 > 100 µM | HOP-92 > 88.9 µM | NCI/ADR-RES > 100 µM | KM-20L2 > 100 µM | HOP-18 > 100 µM | DMS-273 > 100 µM

CCOC(=O)NC(OCc1ccccc1)(C(=O)OC)C(F)(F)F (centres undefined)
inactive: HOP-92 > 100 µM | MDA-MB-435 > 100 µM | NCI/ADR-RES > 100 µM | PC-3 > 100 µM

CCCCCCCSc1nc2c(C(=O)OCC)ncn2c2ccccc12
inactive: HOP-92 25.1 µM | KM-20L2 > 100 µM | DMS-273 > 100 µM

C=C1[C@@H]2CCC(C)(C)[C@H]1CCC(=O)[C@@H]2C(=O)OC
inactive: RXF 631 > 100 µM | KM-20L2 > 100 µM | DMS-273 > 100 µM

CC(C)=CC1(C)/C(=N\O)C(C)(CC(C)C)C(=O)N1O (centres undefined)
inactive: SNB-78 > 100 µM | HOP-92 > 100 µM | RXF 631 > 100 µM | KM-20L2 > 100 µM | DMS-273 > 100 µM
